Test results published in ChEMBL document CHEMBL2073842, “Characterization of the efflux transport of 17beta-estradiol-D-17beta-glucuronide from the brain across the blood-brain barrier” (J Pharmacol Exp Ther, 2001).

Columns and labels:
[1] = target: T1, Organic anion transporter 3 (Rattus norvegicus, UniProt Q9R1U7); experiment: TP_TRANSPORTER: inhibition of E217betaG uptake in Oat3-expressing LLC-PK1 cells; assay type: functional, cell-based
T1 sequence (Q9R1U7 whole entry): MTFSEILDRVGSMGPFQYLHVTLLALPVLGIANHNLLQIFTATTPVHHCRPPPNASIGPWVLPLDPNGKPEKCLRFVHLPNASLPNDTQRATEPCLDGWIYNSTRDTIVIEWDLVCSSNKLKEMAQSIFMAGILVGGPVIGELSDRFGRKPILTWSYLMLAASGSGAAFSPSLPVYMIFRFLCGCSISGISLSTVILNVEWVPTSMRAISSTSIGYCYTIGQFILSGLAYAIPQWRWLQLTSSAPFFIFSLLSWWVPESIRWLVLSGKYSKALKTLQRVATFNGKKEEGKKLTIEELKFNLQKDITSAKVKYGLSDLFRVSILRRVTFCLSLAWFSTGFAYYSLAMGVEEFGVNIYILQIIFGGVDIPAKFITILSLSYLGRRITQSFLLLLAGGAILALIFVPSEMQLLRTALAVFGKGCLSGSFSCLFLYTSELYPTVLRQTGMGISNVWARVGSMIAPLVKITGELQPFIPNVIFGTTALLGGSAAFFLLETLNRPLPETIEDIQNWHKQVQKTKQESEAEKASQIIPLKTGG

[2] = target: T2, Solute carrier organic anion transporter family member 1A1 (Rattus norvegicus, UniProt P46720); experiment: TP_TRANSPORTER: inhibition of E217betaG uptake in Oatp1-expressing LLC-PK1 cells; assay type: functional, cell-based
T2 sequence (P46720 whole entry): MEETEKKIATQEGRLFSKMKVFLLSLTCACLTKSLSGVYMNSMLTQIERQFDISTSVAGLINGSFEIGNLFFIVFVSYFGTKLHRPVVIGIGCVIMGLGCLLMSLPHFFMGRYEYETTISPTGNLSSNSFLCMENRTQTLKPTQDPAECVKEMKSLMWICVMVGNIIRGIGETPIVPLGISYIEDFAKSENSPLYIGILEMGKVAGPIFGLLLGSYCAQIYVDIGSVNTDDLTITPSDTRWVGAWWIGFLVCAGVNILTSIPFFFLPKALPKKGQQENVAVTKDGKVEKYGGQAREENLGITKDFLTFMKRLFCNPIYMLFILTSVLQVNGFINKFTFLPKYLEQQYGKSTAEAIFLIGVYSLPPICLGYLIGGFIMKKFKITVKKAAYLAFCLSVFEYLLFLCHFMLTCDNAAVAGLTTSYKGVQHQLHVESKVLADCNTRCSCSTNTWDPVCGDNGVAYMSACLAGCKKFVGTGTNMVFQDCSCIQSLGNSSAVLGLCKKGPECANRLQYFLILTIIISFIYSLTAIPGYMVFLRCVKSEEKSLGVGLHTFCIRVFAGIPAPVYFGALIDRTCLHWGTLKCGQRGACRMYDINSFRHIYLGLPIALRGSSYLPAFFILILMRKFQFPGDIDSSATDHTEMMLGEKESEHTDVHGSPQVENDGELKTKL

[3] = target: T3, Solute carrier organic anion transporter family member 1A4 (Rattus norvegicus, UniProt O35913); experiment: TP_TRANSPORTER: inhibition of E217betaG uptake in Oatp2-expressing LLC-PK1 cells; assay type: functional, cell-based
T3 sequence (O35913 whole entry): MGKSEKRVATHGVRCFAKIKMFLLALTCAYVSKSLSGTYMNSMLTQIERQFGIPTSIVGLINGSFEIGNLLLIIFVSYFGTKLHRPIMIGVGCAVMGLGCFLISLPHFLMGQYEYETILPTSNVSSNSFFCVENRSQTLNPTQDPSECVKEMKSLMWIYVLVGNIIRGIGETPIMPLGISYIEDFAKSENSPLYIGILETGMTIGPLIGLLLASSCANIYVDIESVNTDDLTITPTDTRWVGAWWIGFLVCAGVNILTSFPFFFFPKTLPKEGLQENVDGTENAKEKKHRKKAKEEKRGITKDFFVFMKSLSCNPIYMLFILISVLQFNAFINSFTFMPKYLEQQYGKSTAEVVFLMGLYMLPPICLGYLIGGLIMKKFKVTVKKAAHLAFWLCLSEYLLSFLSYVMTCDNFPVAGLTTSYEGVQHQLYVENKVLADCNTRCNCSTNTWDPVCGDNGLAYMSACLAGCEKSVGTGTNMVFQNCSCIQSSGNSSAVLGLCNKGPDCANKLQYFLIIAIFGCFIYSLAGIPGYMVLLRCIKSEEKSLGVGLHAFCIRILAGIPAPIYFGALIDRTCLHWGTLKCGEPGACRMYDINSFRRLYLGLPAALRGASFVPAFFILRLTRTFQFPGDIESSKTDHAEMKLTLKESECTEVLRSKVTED

[4] = substrate: C[C@]12CC[C@@H]3c4ccc(O)cc4CC[C@H]3[C@@H]1CC[C@@H]2O[C@@H]1O[C@H](C(=O)O)[C@@H](O)[C@H](O)[C@H]1O; experiment: TP_TRANSPORTER: uptake in Oatp2-expressing LLC-PK1 cells; assay type: functional, cell-based
[5] = substrate: C[C@]12CC[C@@H]3c4ccc(O)cc4CC[C@H]3[C@@H]1CC[C@@H]2O[C@@H]1O[C@H](C(=O)O)[C@@H](O)[C@H](O)[C@H]1O; experiment: TP_TRANSPORTER: uptake in Oatp1-expressing LLC-PK1 cells; assay type: functional, cell-based
[6] = substrate: Nc1ccc(C(=O)NCC(=O)O)cc1; experiment: cells, lysate or membranes named

Work on `Nc1ccc(C(=O)NCC(=O)O)cc1` [AMINOHIPPURIC ACID] yielded a Ki [1] of 301 µM.

For `CCCN(CCC)S(=O)(=O)c1ccc(C(=O)O)cc1` [PROBENECID], the Ki [2] was 74.4 µM, the Ki [1] was 20 µM and the Ki [3] was 72.9 µM.

B1: Solute carrier organic anion transporter family member 1A4 (Rattus norvegicus) (protein)
chain: MGKSEKRVATHGVRCFAKIKMFLLALTCAYVSKSLSGTYMNSMLTQIERQFGIPTSIVGLINGSFEIGNLLLIIFVSYFGTKLHRPIMIGVGCAVMGLGCFLISLPHFLMGQYEYETILPTSNVSSNSFFCVENRSQTLNPTQDPSECVKEMKSLMWIYVLVGNIIRGIGETPIMPLGISYIEDFAKSENSPLYIGILETGMTIGPLIGLLLASSCANIYVDIESVNTDDLTITPTDTRWVGAWWIGFLVCAGVNILTSFPFFFFPKTLPKEGLQENVDGTENAKEKKHRKKAKEEKRGITKDFFVFMKSLSCNPIYMLFILISVLQFNAFINSFTFMPKYLEQQYGKSTAEVVFLMGLYMLPPICLGYLIGGLIMKKFKVTVKKAAHLAFWLCLSEYLLSFLSYVMTCDNFPVAGLTTSYEGVQHQLYVENKVLADCNTRCNCSTNTWDPVCGDNGLAYMSACLAGCEKSVGTGTNMVFQNCSCIQSSGNSSAVLGLCNKGPDCANKLQYFLIIAIFGCFIYSLAGIPGYMVLLRCIKSEEKSLGVGLHAFCIRILAGIPAPIYFGALIDRTCLHWGTLKCGEPGACRMYDINSFRRLYLGLPAALRGASFVPAFFILRLTRTFQFPGDIESSKTDHAEMKLTLKESECTEVLRSKVTED
B1 showed a Km [4] of 17 µM.

B2: Solute carrier organic anion transporter family member 1A1 (Rattus norvegicus) (protein)
chain: MEETEKKIATQEGRLFSKMKVFLLSLTCACLTKSLSGVYMNSMLTQIERQFDISTSVAGLINGSFEIGNLFFIVFVSYFGTKLHRPVVIGIGCVIMGLGCLLMSLPHFFMGRYEYETTISPTGNLSSNSFLCMENRTQTLKPTQDPAECVKEMKSLMWICVMVGNIIRGIGETPIVPLGISYIEDFAKSENSPLYIGILEMGKVAGPIFGLLLGSYCAQIYVDIGSVNTDDLTITPSDTRWVGAWWIGFLVCAGVNILTSIPFFFLPKALPKKGQQENVAVTKDGKVEKYGGQAREENLGITKDFLTFMKRLFCNPIYMLFILTSVLQVNGFINKFTFLPKYLEQQYGKSTAEAIFLIGVYSLPPICLGYLIGGFIMKKFKITVKKAAYLAFCLSVFEYLLFLCHFMLTCDNAAVAGLTTSYKGVQHQLHVESKVLADCNTRCSCSTNTWDPVCGDNGVAYMSACLAGCKKFVGTGTNMVFQDCSCIQSLGNSSAVLGLCKKGPECANRLQYFLILTIIISFIYSLTAIPGYMVFLRCVKSEEKSLGVGLHTFCIRVFAGIPAPVYFGALIDRTCLHWGTLKCGQRGACRMYDINSFRHIYLGLPIALRGSSYLPAFFILILMRKFQFPGDIDSSATDHTEMMLGEKESEHTDVHGSPQVENDGELKTKL
B2 showed a Km [5] of 2.58 µM.

B3: Solute carrier family 22 member 6 (Rattus norvegicus) (protein)
chain: MAFNDLLKQVGGVGRFQLIQVTMVVAPLLLMASHNTLQNFTAAIPPHHCRPPANANLSKDGGLEAWLPLDKQGQPESCLRFTSPQWGPPFYNGTEANGTRVTEPCIDGWVYDNSTFPSTIVTEWNLVCSHRAFRQLAQSLYMVGVLLGAMVFGYLADRLGRRKVLILNYLQTAVSGTCAAYAPNYTVYCVFRLLSGMSLASIAINCMTLNVEWMPIHTRAYVGTLIGYVYSLGQFLLAGIAYAVPHWRHLQLVVSVPFFIAFIYSWFFIESARWYSSSGRLDLTLRALQRVARINGKQEEGAKLSIEVLRTSLQKELTLSKGQASAMELLRCPTLRHLFLCLSMLWFATSFAYYGLVMDLQGFGVSMYLIQVIFGAVDLPAKFVCFLVINSMGRRPAQMASLLLAGICILVNGIIPKSHTIIRTSLAVLGKGCLASSFNCIFLYTGELYPTVIRQTGLGMGSTMARVGSIVSPLVSMTAEFYPSMPLFIFGAVPVVASAVTALLPETLGQPLPDTVQDLKSRSRGKQNQQQQEQQKQMMPLQASTQEKNGL
B3 was tested, and the Km [6] was 85.1 µM.
